Values of other authors as cited in CN104306347A, “一种卡维地洛双层缓释片及其制备方法” (BEIJING D-VENTUREPHARM TECHNOLOGY DEVELOPMENT Co Ltd, priority 2014, dated 2015).

What was measured:
[1] = in vivo

For `COc1ccccc1OCCNCC(O)COc1cccc2[nH]c3ccccc3c12` (stereo not shown) [卡维地洛], which first-pass effect (after oral administration) is on record?
The first-pass effect was “有明显的首过效应”.

What about the oral absorption (after oral administration) of the same compound?
Its oral absorption is “易于吸收”.

What about the “elimination phase half-life (t1/2b)” value (in vivo) of the same compound?
The value was 7~10 h.

And the “excretion in urine as unchanged drug” value (in vivo)?
The value was < 2%.

And the plasma clearance (in vivo)?
Its plasma clearance is 500~700 ml/min.

And the “steady-state volume of distribution” value (in vivo)?
Its value is ~1.5 L.

And the metabolism (metabolites excreted via bile then faeces)?
The metabolism was “代谢完全”.

What about the “absolute bioavailability (F)” value (oral) of the same compound?
The value was 25%~35%.

What about the “absorption when taken with food” value (taken with food) of the same compound?
Its value is “吸收减慢”.

And the “relative bioavailability when taken with food” value (taken with food)?
The value was “没有明显影响”.

And the “incidence of adverse reactions” value [1]?
Its value is “很低”.

And the “risk of postural hypotension when taken with food” value [1]?
The value was “可减少引起体位性低血压的危险性”.

And the tolerability [1]?
Its tolerability is “耐受性良好”.
